Results on six compounds are retold here after ChEMBL document CHEMBL1129121, “Design, synthesis and binding affinities of novel non-peptide mimics of somatostatin/sandostatin” (Bioorg Med Chem Lett, 1996).

By IC50 is commonly meant the point on the concentration scale where inhibition reaches its midpoint. A lower IC50 goes with greater potency.

SMILES strings stand for the structures.

For the experiment, the target named is Somatostatin receptor. The experiment in a line: Compound was tested for its potency to displace 3-[125I]- - Tyr11-SRIF-14 from somatostatin receptor on membranes of rat cerebral cortex. Format: tissue-based.
In the case of `NCCCCCCNC[C@H]1C(OCc2ccccc2)[C@H](OCc2ccccc2)[C@H](O)CN1CCc1c[nH]c2ccccc12` (stereo partly specified), the half-inhibitory concentration (IC50) was determined as 12 µM.

Consider `NCCCCCCNC[C@@H]1CN(CCc2c[nH]c3ccccc23)C[C@@H](O)[C@@H](OCc2ccccc2)[C@@H]1OCc1ccccc1`, for which the concentration for half-maximal inhibition (IC50) was determined as 10 µM.

Compound `NCCCCCCN[C@H]1CN(CCc2c[nH]c3ccccc23)[C@@H](CO)C(OCc2ccccc2)[C@@H]1OCc1ccccc1` (stereo partly specified) yielded an IC50 of 11 µM.

Take `NCCCCCCN1CC2[C@@H](OCc3ccccc3)[C@H](OCc3ccccc3)C1CN2CCc1c[nH]c2ccccc12` (stereo partly specified): the concentration for half-maximal inhibition (IC50) was found to be 15 µM.

Consider `NCCCCCCNC[C@H]1[C@@H](OCc2ccccc2)C(OCc2ccccc2)[C@H](CO)N1CCc1c[nH]c2ccccc12` (stereo partly specified), for which the concentration for half-maximal inhibition (IC50) was determined as 14 µM. The IC50 values of the last two compounds are within 1.5-fold of each other.

As to `NCCCCCCN1CC2[C@@H](OCc3ccccc3)[C@H](OCc3ccccc3)[C@H](C1)N2CCc1c[nH]c2ccccc12`, the IC50 came out at 12 µM.
